The nature of data set [1]: Inhibition of human MDH incubated for 5 mins in presence of NADH by absorbance based analysis.
Data set [2] deals with Sodium-dependent noradrenaline transporter (Homo sapiens, UniProt P23975). Nature of the data set: Displacement of [125]RTI-55 from human recombinant NET receptor expressed in MDCK cells incubated for 3 hrs by radioligand binding assay. The class given is toxicity, cell-based.
For data set [3], the species on record is Homo sapiens. Nature of the data set: Inhibition of human MDH at 100 to 200 uM incubated for 5 mins in presence of NADH by absorbance based analysis relative to control. As to conditions: dose 100-200 µM.
Data set [4] addresses Histamine H1 receptor (Homo sapiens, UniProt P35367). Nature of the data set: Displacement of [3H]-Pyrilamine from human recombinant H1 receptor expressed in CHO-K1 cells incubated for 3 hrs by radioligand binding assay. Format: toxicity, cell-based.
Data set [5] in a line: Aggregation property of compound in DMEM assessed as critical aggregation concentration by DLS assay. The class given is physicochemical.
For data set [6], the species on record is Homo sapiens. Nature of the data set: Inhibition of human MDH at 100 to 200 uM incubated for 5 mins in presence of NADH and triton X-100 by absorbance based analysis relative to control. As to conditions: dose 100-200 µM.
A short description of data set [7]: Aggregation property of compound in PB buffer at pH 7 assessed as critical aggregation concentration by DLS assay. Format: physicochemical.
Data set [8] concerns the target Mu-type opioid receptor (Homo sapiens, UniProt P35372). Nature of the data set: Displacement of [3H]-Diprenorphine from human recombinant MOP receptor expressed in CHO-K1 cells incubated for 60 mins by radioligand binding assay. The class given is toxicity, cell-based. (In a radioligand displacement assay an active substance lowers the binding of a labelled ligand.)

Data set [9] can be described thus: Aggregation property of compound in Tris HCL buffer at pH 7.4 assessed as critical aggregation concentration by DLS assay. Format: physicochemical.
A short description of data set [10]: Aggregation property of compound in PBS buffer at pH 7.4 assessed as critical aggregation concentration by DLS assay. The class given is physicochemical.
Data set [11] has as its target 5-hydroxytryptamine receptor 2A (Homo sapiens, UniProt P28223). In words: Displacement of [3H]ketanserin from human recombinant 5-HT2A receptor expressed in CHO-K1 cells incubated for 60 mins by radioligand binding assay. Format: toxicity, cell-based.
The target of data set [12] is Sodium-dependent serotonin transporter (Homo sapiens, UniProt P31645). Nature of the data set: Displacement of [3H]-Paroxetine from human […] cells incubated for 60 mins by radioligand binding assay. The class given is toxicity, cell-based.
Data set [13] concerns the target Sodium-dependent dopamine transporter (Homo sapiens, UniProt Q01959). Nature of the data set: Displacement of [125]RTI-55 from human recombinant DAT receptor expressed in CHO-S cells incubated for 3 hrs by radioligand binding assay. Format: cell-based.
For data set [14], the target named is Voltage-gated inwardly rectifying potassium channel KCNH2 (Homo sapiens, UniProt Q12809). In words: Displacement of [3H]-Dofetilide from recombinant hERG expressed in HEK293 cells incubated for 60 mins by radioligand binding assay. Format: toxicity, cell-based.

As a reminder, the IC50 is the concentration at which inhibition is half-maximal. Usually inhibition stands for the percentage by which the read-out fell short of the control.

Sequence of Sodium-dependent dopamine transporter (Q01959 whole entry): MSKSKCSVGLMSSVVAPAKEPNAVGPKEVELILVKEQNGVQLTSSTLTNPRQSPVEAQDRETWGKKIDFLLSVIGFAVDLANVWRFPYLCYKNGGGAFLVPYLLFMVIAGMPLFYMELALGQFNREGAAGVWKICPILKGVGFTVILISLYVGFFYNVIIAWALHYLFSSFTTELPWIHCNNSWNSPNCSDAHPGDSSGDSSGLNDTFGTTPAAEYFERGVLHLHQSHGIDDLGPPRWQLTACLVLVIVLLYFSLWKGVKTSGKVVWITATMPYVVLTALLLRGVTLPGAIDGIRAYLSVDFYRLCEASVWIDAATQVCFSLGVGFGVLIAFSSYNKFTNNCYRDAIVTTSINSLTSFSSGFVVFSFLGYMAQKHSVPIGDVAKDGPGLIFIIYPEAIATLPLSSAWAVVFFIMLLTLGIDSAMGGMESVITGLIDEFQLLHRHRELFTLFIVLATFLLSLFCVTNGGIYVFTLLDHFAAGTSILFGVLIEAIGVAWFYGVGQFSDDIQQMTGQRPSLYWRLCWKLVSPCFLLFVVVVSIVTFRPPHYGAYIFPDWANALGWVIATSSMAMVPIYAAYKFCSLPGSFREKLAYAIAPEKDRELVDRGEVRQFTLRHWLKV
Sequence of Sodium-dependent serotonin transporter (P31645 whole entry): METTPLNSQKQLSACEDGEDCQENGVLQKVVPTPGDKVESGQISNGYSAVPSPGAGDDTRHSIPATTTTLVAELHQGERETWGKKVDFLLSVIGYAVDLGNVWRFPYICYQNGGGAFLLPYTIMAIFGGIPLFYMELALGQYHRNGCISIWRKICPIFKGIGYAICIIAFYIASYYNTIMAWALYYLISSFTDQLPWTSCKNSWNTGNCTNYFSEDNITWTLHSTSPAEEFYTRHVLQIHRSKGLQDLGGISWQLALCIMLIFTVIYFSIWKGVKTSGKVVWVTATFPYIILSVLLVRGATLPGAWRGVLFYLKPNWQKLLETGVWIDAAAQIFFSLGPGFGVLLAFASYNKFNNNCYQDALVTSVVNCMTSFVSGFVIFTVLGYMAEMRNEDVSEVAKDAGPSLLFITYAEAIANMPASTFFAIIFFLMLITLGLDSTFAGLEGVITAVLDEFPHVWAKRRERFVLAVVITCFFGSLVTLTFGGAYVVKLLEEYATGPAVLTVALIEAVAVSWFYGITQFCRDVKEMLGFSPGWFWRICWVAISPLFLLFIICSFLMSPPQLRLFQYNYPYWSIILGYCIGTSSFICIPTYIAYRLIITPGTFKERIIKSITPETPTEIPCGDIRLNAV
Sequence of Sodium-dependent noradrenaline transporter (P23975 whole entry): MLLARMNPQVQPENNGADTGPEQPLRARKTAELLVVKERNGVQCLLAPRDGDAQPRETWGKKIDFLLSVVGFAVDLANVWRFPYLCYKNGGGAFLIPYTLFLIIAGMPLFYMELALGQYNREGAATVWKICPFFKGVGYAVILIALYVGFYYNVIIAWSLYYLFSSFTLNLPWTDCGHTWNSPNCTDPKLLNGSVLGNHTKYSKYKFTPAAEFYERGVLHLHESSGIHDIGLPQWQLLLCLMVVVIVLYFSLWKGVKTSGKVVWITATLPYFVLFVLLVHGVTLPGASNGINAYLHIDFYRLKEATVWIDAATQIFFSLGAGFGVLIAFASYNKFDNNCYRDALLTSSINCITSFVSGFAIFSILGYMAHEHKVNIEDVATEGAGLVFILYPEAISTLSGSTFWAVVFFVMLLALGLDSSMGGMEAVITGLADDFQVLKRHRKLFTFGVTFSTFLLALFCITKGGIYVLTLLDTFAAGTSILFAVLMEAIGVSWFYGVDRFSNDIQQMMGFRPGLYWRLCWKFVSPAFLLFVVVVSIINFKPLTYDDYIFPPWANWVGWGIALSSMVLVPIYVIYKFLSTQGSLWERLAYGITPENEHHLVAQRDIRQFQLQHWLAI
Sequence of Mu-type opioid receptor (P35372 whole entry): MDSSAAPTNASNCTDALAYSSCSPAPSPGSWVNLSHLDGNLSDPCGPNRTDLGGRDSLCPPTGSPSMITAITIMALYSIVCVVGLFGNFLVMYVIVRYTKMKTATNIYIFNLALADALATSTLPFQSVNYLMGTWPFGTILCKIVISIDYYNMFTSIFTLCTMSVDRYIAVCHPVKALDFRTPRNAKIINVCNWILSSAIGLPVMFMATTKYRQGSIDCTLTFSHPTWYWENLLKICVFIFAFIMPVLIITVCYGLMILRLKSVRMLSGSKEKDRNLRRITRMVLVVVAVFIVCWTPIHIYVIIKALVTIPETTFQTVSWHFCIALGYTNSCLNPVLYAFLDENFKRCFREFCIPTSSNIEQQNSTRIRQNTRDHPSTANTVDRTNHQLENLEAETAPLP
Sequence of 5-hydroxytryptamine receptor 2A (P28223 whole entry): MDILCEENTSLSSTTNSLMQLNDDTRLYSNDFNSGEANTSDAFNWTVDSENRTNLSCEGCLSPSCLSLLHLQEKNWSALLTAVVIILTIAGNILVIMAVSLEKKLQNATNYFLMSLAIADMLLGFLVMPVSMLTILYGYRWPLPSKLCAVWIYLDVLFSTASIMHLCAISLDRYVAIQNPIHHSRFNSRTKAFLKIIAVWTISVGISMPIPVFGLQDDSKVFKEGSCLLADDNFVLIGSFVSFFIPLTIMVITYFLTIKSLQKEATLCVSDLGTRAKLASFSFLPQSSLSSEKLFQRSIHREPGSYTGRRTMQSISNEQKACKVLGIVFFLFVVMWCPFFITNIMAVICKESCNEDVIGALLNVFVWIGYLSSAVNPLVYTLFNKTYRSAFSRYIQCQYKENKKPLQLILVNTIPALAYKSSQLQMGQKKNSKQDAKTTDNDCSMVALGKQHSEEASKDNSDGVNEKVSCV
Sequence of Voltage-gated inwardly rectifying potassium channel KCNH2 (Q12809 whole entry): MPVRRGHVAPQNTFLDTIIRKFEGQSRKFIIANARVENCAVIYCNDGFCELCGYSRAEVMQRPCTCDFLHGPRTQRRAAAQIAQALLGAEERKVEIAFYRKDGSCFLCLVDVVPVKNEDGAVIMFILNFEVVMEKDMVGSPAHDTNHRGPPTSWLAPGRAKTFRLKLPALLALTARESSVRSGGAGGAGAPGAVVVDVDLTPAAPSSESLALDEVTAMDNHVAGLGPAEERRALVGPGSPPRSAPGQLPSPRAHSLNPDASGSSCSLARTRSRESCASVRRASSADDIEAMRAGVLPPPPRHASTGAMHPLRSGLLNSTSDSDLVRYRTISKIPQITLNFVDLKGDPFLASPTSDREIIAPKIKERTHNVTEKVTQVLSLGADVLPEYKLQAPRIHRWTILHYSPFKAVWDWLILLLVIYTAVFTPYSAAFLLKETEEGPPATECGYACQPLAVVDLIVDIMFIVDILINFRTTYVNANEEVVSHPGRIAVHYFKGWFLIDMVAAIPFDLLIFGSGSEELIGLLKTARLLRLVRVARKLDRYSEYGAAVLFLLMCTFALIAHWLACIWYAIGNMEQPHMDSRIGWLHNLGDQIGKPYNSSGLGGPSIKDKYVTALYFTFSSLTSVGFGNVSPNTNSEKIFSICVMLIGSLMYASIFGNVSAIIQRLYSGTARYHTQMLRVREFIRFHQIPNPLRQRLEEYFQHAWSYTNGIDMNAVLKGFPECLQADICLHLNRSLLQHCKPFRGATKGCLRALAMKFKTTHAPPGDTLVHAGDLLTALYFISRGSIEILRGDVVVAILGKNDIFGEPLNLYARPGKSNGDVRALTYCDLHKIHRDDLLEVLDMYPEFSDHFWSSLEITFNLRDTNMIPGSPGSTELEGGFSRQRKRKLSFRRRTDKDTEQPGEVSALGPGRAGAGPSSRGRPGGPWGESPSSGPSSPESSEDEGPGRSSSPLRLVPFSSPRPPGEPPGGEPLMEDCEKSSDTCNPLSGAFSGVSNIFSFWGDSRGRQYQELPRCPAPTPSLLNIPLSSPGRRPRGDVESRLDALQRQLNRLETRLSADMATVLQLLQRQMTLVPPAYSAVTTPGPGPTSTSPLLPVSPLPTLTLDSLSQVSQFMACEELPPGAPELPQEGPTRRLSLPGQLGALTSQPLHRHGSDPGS
Sequence of Histamine H1 receptor (P35367 whole entry): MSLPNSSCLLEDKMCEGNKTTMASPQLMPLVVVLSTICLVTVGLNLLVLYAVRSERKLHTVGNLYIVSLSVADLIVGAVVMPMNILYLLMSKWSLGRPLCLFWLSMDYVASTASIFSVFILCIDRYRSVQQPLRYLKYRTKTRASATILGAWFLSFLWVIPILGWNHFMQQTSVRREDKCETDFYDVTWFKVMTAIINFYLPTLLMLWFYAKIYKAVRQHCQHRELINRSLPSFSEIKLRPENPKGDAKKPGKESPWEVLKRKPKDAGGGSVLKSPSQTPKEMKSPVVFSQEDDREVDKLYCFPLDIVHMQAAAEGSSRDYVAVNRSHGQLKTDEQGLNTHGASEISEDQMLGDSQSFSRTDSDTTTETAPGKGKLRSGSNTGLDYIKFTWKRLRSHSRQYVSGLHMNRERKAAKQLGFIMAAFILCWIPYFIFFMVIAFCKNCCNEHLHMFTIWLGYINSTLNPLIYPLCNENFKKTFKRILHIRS

For the compound `CCCCCc1cc2c(c(O)c1C(=O)O)C=CC(C)(CCC=C(C)C)O2` (stereo unspecified), the IC50 in [1] is 30.2 µM; in data set [2] it was 3.22 µM; in data set [4] it was 5.7 µM; in data set [8], 10.8 µM. Moreover, the inhibition in data set [3] and in data set [6] was 100% each time. For the same compound, the CAC in [5] and in data set [7] was 100 µM in each case.
With `CCCCCc1cc(O)c2c(c1)OC(C)(C)c1ccc(C)cc1-2` [CANNABINOL], the IC50 in [1] was determined as 3.2 µM; in data set [2], 1.15 µM; in data set [8] it was 3.21 µM; in data set [11], 4.89 µM; in data set [12], 3.35 µM. Further, the inhibition in [3] and in [6] was 100% in each case. Also, the CAC came out at 4.8 µM in data set [5], 12.9 µM in data set [7], 10.4 µM in data set [9] and 23.1 µM in data set [10].
Take `C=C(C)[C@@H]1CCC(C)=C[C@H]1c1c(O)cc(CCC)cc1O` [CANNABIDIVARIN]: the IC50 worked out at 11 µM in data set [1], 2.66 µM in [2], 3 µM in [13] and 6.42 µM in data set [8]. Also, the inhibition in data set [3] and in [6] was 100% in each case. In addition, the CAC in [5] stood at 100 µM; in [7] it was 31.6 µM; in data set [9] it was 100 µM; in data set [10] it was 31.6 µM.
In the case of `CCCCCc1cc(O)c2c(c1)OC(C)(CCC=C(C)C)C=C2` (stereo unspecified) [CANNABICHROMENE], the IC50 in data set [1] was found to be 1 µM; in data set [2], 1.95 µM; in data set [13] it was 0.74 µM; in [12], 6.26 µM. The inhibition in data set [3] and in data set [6] was 100% in each case. The CAC in data set [5] was determined as 1.6 µM; in [7] it was 5.6 µM; in [9], 0.8 µM; in [10], 0.2 µM.
As to `C=C(C)[C@@H]1CCC(C)=C[C@H]1c1c(O)cc(CCCCC)c(C(=O)O)c1O` [CANNABIDIOLIC ACID], the IC50 in [1] came to 46.8 µM. Besides, the inhibition in data set [3] and in data set [6] was 100% each time. Besides, in [7], the CAC was 60.3 µM.
In the case of `CCCCCc1cc(O)c(C/C=C(\C)CCC=C(C)C)c(O)c1C(=O)O` [CANNABIGEROLIC ACID], the IC50 was determined as 28.8 µM in [1] and 3.88 µM in data set [13]. The inhibition in data set [3] and in [6] was 100% in each case. Moreover, in data set [7], the CAC is 12 µM.
As to `CCCCCc1cc(O)c(C/C=C(\C)CCC=C(C)C)c(O)c1` [CANNABIGEROL], the IC50 in [1] was 8.8 µM; in [2] it was 2.45 µM; in [13], 0.95 µM; in data set [8], 1.38 µM; in [14], 3.06 µM; in data set [11] it was 1.88 µM. Also, in data set [12], the IC50 was 1.66 µM. Further, the inhibition in data set [3] and in [6] was 100% each time. Moreover, the CAC in data set [5] turned out to be 16.7 µM; in data set [7], 20.9 µM; in data set [9], 20.3 µM; in [10] it was 100 µM.
